Measured values as given in patent EP4385508A1, “FURAN FATTY ACIDS FOR ENHANCING MUSCLE MASS” (Centre de Coopération Internationale en Recherche …, priority 2022, dated 2024).

System: mTOR (Ser2448)
Experiment: mTOR phosphorylation by Western blot in C2C12 myotubes
Format: cell-based, Mouse
Experimental: Mouse myoblasts of the C2C12 cell line (ATCC) were seeded at a plating density of 7000 cells/cm2 in 6-well plates. They were grown in DMEM high glucose (4.5g/l) supplemented with gentamycin (50 µg/mL), amphotericin (50 µg/mL), and fetal calf serum (10%). Terminal differentiation was induced at cell confluence by lowering the medium serum concentration (0.5%).
When indicated, FuFA-F2 was added to the culture medium at the indicated concentration. For the differentiation studies, FuFA-F2 was added at the confluence at the same time as the change in media condition. Three doses of FuFA-F2 were studied at a final concentration of 1, 10, or 50 µM. Human insulin was used at a concentration of 100 nM.
Protein levels were assessed by Western blotting. Total proteins were measured using the Bio-Rad protein assay (Hercules, CA, USA) according to the manufacturer's instructions. Total proteins were lysed in RIPA buffer (20mM Tris, 150mM NaCl, 1mM EDTA, 1% NP40, pH 7.5 + complete cocktail protease inhibitors + Pierce phosphatase inhibitors tablet). 40 µg of cell extracts were loaded and blotted onto a nitrocellulose membrane. The membranes were washed, blocked with 5% nonfat milk and incubated in primary antibody overnight at 4°C. The membranes were then washed in TBS-Tween (10mM Tris, 140mM NaCl, and 0.2% Tween-20), incubated with the appropriate secondary antibody coupled to horseradish peroxidase, and washed again in TBS-Tween. […] Touch Software (version 5.2.1) (Hercules, CA, USA). […]
It is shown that FuFA-F2 increased protein accretion in myotubes. Protein homeostasis is determined by the dynamic balance between protein synthesis and degradation. Protein synthesis was evaluated by measuring the phosphorylation of Akt (Ser473), mTOR (Ser2448) and 4E-BP1 (Thr37/46), which are major regulators of translation and protein synthesis. […]

## CCCCCc1cc(C)c(CCCCCCCCC(=O)O)o1 [FuFA-F2]
3-day pretreatment, 2 hours low-glucose medium, then treatment for 30 minutes, insulin alone 100 nM
  mTOR phosphorylation at Ser2448: significant increase
High glucose medium, 3 days, with or without FuFA-F2
  mTOR phosphorylation: no difference
Without pretreatment, 30 min incubation after low-glucose medium
  rapid effect on mTOR phosphorylation: not observed
